According to US11780845B2 (Relay Therapeutics, Inc., priority 2019, dated 2023):

Tests used:
SNU-16 = assay: Cell SNU-16 assay; assay type: cell-based
FGFR2 = FGFR2 (Homo sapiens (Human), UniProt P21802); assay: Biochemical FGFR2 Caliper assay
[1] = Homo sapiens, SNU-16, SNU-16 cells

Sequence of FGFR2 (P21802 22-821): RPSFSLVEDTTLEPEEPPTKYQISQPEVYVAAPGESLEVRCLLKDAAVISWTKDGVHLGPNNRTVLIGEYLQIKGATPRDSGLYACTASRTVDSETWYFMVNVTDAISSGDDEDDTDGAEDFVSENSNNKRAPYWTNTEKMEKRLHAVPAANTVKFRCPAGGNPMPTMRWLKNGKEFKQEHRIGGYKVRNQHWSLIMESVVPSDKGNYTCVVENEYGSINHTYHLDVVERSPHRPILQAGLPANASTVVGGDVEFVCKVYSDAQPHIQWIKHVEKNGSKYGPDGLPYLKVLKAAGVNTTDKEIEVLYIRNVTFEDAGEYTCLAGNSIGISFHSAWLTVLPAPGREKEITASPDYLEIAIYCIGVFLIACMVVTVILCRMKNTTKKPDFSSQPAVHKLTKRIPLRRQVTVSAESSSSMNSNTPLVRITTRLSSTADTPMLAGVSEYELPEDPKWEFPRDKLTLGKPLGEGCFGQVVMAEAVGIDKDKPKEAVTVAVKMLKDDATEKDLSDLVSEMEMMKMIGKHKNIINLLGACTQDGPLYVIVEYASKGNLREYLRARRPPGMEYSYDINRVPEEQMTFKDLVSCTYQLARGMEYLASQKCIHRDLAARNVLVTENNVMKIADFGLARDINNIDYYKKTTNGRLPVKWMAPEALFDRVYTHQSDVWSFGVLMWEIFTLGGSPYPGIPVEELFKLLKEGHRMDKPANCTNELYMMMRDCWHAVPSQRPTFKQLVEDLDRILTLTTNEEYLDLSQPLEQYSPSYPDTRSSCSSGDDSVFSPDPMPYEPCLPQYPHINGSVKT

Row | Compound | IC50 (SNU-16; [1]) [µM] | IC50 (FGFR2) [µM] | IC50 (SNU-16; SNU-16 cells) [µM]
1 | C=CC(=O)N1C[C@@H](O)[C@@H](c2c(-c3ccc(Oc4cccc(C)n4)cc3)c3c(N)ncnc3n2C)C1 [Example 807] | 0.25 to 1 | 0.25 to 1 | 
2 | C=C(C)C(=O)Nc1ccc(-c2c(-c3ccc(Oc4cccc(C)n4)cc3)c3c(N)ncnn3c2CO)cc1 [Example 808] | 0.1 to 0.25 | 0.1 to 0.25 | 
3 | C=CC(=O)NC1CCC(c2c(-c3ccc(Oc4cccc(C)n4)cc3)c3c(N)ncnc3n2C)C1 (stereo not drawn) [Example 810] | ≤ 0.1 | < 0.1 | 
4 | C=CC(=O)N1CCC(c2c(-c3ccc(-n4cc(C)cn4)cc3)c3c(N)ncnc3n2C)C1 (stereo not drawn) [Example 811] | 0.25 to 1 | 0.1 to 0.25 | 
5 | C=CC(=O)N1C2COCC1C(c1c(-c3ccc(Oc4cccc(C)n4)cc3)c3c(N)ncnc3n1C)C2 (stereo not drawn) [Example 812] | ≤ 0.1 | < 0.1 | 
6 | C=CC(=O)N1CC(F)C(c2c(-c3ccc(Oc4cccc(C)n4)cc3)c3c(N)ncnc3n2C)C1 (stereo not drawn) [Example 813] | 0.25 to 1 | 0.25 to 1 | 
7 | C=CC(=O)N1CC(CO)C(c2c(-c3ccc(Oc4cccc(C)n4)cc3)c3c(N)ncnc3n2C)C1 (stereo not drawn) [Example 814] | ≤ 0.1 | < 0.1 | 
8 | C=C(C)C(=O)Nc1ccc(-c2[nH]c3ncnc(N)c3c2-c2ccc(Oc3ncc(F)cn3)c(F)c2)cc1 [Example 815] | 1 to 100 | 0.25 to 1 | 
9 | C=CC(=O)N(C)C1CCC(c2c(-c3ccc(Oc4cccc(C)n4)cc3)c3c(N)ncnc3n2C)C1 (stereo not drawn) [Example 816] | 0.1 to 0.25 | 0.25 to 1 | 
10 | C=CC(=O)N1CCC(c2c(-c3cnn(-c4ccccc4C)c3)c3c(N)ncnc3n2C)C1 (stereo not drawn) [Example 817] | 0.1 to 0.25 | 0.1 to 0.25 | 
11 | C=C(C)C(=O)Nc1ccc(-c2[nH]c3ncnc(N)c3c2-c2ccc(S(=O)(=O)C3CCCC3)cc2)cc1 [Example 818] | 0.25 to 1 | 0.25 to 1 | 
12 | C=CC(=O)N1CC(c2c(-c3ccc(Oc4cccc(C)n4)cc3)c3c(N)ncnc3n2C)C[C@@H]1CO (stereo partly drawn) [Example 819] | 0.25 to 1 | 0.25 to 1 | 
13 | C=C(C)C(=O)Nc1ccc(-c2c(-c3ccc(Oc4cccc(C)n4)cc3)c3ncncc3n2C)cc1 [Example 820] | ≤ 0.1 | < 0.1 | 
14 | C=C(C)C(=O)Nc1ccc(-c2cn3ncnc(N)c3c2-c2ccc(C(=O)N3CCCCC3)cc2)cc1 [Example 821] | 1 to 100 | 1 to 100 | 
15 | C=CC(=O)Nc1ccc(-c2[nH]c3ncnc(N)c3c2-c2ccc(Oc3ccn(C)n3)cc2)cc1 [Example 822] | 0.25 to 1 | 0.25 to 1 | 
16 | C=C(C)C(=O)Nc1ccc(-c2cn3ncnc(N)c3c2-c2ccc(C(=O)NCC(F)(F)F)cc2)cc1 [Example 823] | 0.25 to 1 | 0.1 to 0.25 | 
17 | C=C(C)C(=O)Nc1ccc(-c2c(-c3ccc(Oc4cccc(C)n4)cc3)c3c(N)ncnn3c2C#N)cc1 [Example 824] | 0.25 to 1 | 0.1 to 0.25 | 
18 | C=C(C)C(=O)Nc1ccc(-c2cn3ncnc(N)c3c2-c2ccc(C(=O)N3CCCC3)cc2)cc1 [Example 825] | ≤ 0.1 | 0.1 to 0.25 | 
19 | C=C(C)C(=O)Nc1ccc(-c2cn3ncnc(N)c3c2-c2ccc(S(=O)(=O)N3CCCC3)cc2)cc1 [Example 826] | 0.25 to 1 | 0.25 to 1 | 
20 | C=C(C)C(=O)Nc1ccc(-c2cn3ncnc(N)c3c2-c2ccc(Oc3ncc(F)cn3)c(F)c2)cc1 [Example 827] | 1 to 100 | 1 to 100 | 

Row | Compound | IC50 (SNU-16; [1]) [µM] | IC50 (FGFR2) [µM] | IC50 (SNU-16; SNU-16 cells) [µM]
21 | C=CC(=O)N1CCC(c2cn3ncnc(N)c3c2-c2ccc(Oc3cccc(C)n3)cc2)C1 (stereo not drawn) [Example 828] | 0.25 to 1 | 1 to 100 | 
22 | C=CC(=O)Nc1ccc(-c2cn3ncnc(N)c3c2-c2ccc(Oc3cccc(C)n3)cc2)cc1 [Example 829] | ≤ 0.1 | < 0.1 | 
23 | C=C(C)C(=O)Nc1ccc(-c2cn3ncnc(N)c3c2-c2ccc(C(=O)NC3CCC3)cc2)cc1 [Example 830] | ≤ 0.1 | < 0.1 | 
24 | C=C(C)C(=O)Nc1ccc(-c2[nH]c3cncnc3c2-c2ccc(Oc3cccc(C)n3)cc2)cc1 [Example 831] | 0.1 to 0.25 | < 0.1 | 
25 | C=C(C)C(=O)Nc1ccc(-c2c(-c3ccc(C(=O)NCC(F)(F)F)cc3)c3c(N)ncnn3c2CO)cc1 [Example 832] | 1 to 100 | 1 to 100 | 
26 | C=CC(=O)N1CCC(O)(c2c(-c3ccc(Oc4cccc(C)n4)cc3)c3c(N)ncnc3n2C)C1 (stereo not drawn) [Example 833] | 0.25 to 1 | 0.1 to 0.25 | 
27 | C=C(C)C(=O)Nc1ccc(-c2cn3ncnc(N)c3c2-c2ccc(S(=O)(=O)NC3CCC3)cc2)cc1 [Example 834] | 0.25 to 1 | 0.25 to 1 | 
28 | C=CC(=O)Nc1ccc(-c2c(-c3ccc(Oc4cccc(C)n4)cc3)c3c(N)ncnn3c2CO)cc1 [Example 835] | 1 to 100 | 1 to 100 | 
29 | C=C(C)C(=O)Nc1ccc(-c2c(-c3ccc(Oc4cccc(C)n4)cc3)c3c(N)ncnn3c2C)cc1 [Example 836] | ≤ 0.1 | < 0.1 | 
30 | C=CC(=O)Nc1ccc(-c2cn3ncnc(N)c3c2-c2ccc(C(=O)N3CCCCC3)cc2)cc1 [Example 837] | ≤ 0.1 | < 0.1 | 
31 | C=CC(=O)Nc1ccc(-c2cn3ncnc(N)c3c2-c2ccc(C(=O)NCC(F)(F)F)cc2)cc1 [Example 838] | ≤ 0.1 | < 0.1 | 
32 | C=CC(=O)N1CC(c2c(-c3ccc(Oc4cccc(C)n4)cc3)c3c(N)ncnc3n2C)C[C@@H]1C (stereo partly drawn) [Example 839] | ≤ 0.1 | < 0.1 | 
33 | C=C(C)C(=O)Nc1ccc(-c2cn3ncnc(N)c3c2-c2ccc(C(=O)N3CC4CC3C4)cc2)cc1 [Example 840] | ≤ 0.1 | < 0.1 | 
34 | C=C(C)C(=O)Nc1ccc(-c2cn3ncnc(N)c3c2-c2ccc(C(=O)NC3CCOC3)cc2)cc1 (stereo not drawn) [Example 841] | 0.25 to 1 | 0.25 to 1 | 
35 | C=C(C)C(=O)Nc1ccc(-c2cn3ncnc(N)c3c2-c2ccc(C(=O)NCC(C)(C)O)cc2)cc1 [Example 842] | 1 to 100 | 0.25 to 1 | 
36 | C=C(C)C(=O)Nc1ccc(-c2cn3ncnc(N)c3c2C2=CCC(C(=O)N(C)C)CC2)cc1 (stereo not drawn) [Example 843] | 0.25 to 1 | 0.25 to 1 | 
37 | C=CC(=O)N1CCC(c2c(-c3ccc(Oc4cccc(C)n4)cc3)c3c(N)ncnc3n2C)C1(C)C (stereo not drawn) [Example 844] | 1 to 100 | 1 to 100 | 
38 | C=CC(=O)N1CCC(n2cc(-c3c(-c4ccc(C(=O)NC5CCOC5)cc4)c4c(N)ncnc4n3C)cn2)CC1 (stereo not drawn) [Example 845] | 0.25 to 1 | 0.25 to 1 | 
39 | C=C(C)C(=O)Nc1ccc(-c2c(-c3ccc(C(=O)N4CCCCC4)cc3)c3c(N)ncnn3c2CO)cc1 [Example 846] | 1 to 100 | < 0.1 | 
40 | C=CC(=O)N1CC(c2c(-c3ccc(Oc4cccc(C)n4)cc3)c3c(N)ncnc3n2C)C[C@H]1C (stereo partly drawn) [Example 847] | 0.25 to 1 | 0.25 to 1 | 

Row | Compound | IC50 (SNU-16; [1]) [µM] | IC50 (FGFR2) [µM] | IC50 (SNU-16; SNU-16 cells) [µM]
41 | C=CC(=O)N1CCC(n2cc(-c3c(-c4ccc(C(=O)N5CC6CC5C6)cc4)c4c(N)ncnc4n3C)cn2)CC1 [Example 848] | 0.1 to 0.25 | 0.1 to 0.25 | 
42 | C=CC(=O)N1CCC(n2cc(-c3c(-c4ccc(C(=O)N(C)Cc5nc(C)no5)cc4)c4c(N)ncnc4n3C)cn2)CC1 [Example 849] | 0.25 to 1 | 0.1 to 0.25 | 
43 | C=CC(=O)N1CCC(N)(c2c(-c3ccc(Oc4cccc(C)n4)cc3)c3c(N)ncnc3n2C)C1 (stereo not drawn) [Example 850] | 1 to 100 | 1 to 100 | 
44 | C=CC(=O)N1CCC(n2cc(-c3c(-c4ccc(C(=O)NCC(C)(C)OC)cc4)c4c(N)ncnc4n3C)cn2)CC1 [Example 851] | 1 to 100 | 1 to 100 | 
45 | C=C(C)C(=O)Nc1ccc(-c2cn3ncnc(N)c3c2-c2ccc(C(=O)NCC(C)(C)OC)cc2)cc1 [Example 852] | 1 to 100 | 0.25 to 1 | 
46 | C=C(C)C(=O)Nc1ccc(-c2c(-c3ccc(C(=O)c4cccc(C)n4)cc3)c3c(N)ncnn3c2COC)cc1 [Example 853] | 0.1 to 0.25 | 0.25 to 1 | 
47 | C=CC(=O)N1CCC(n2cc(-c3c(-c4ccc(C(=O)NCC(C)(C)O)cc4)c4c(N)ncnc4n3C)cn2)CC1 [Example 854] | ≤ 0.1 | 0.1 to 0.25 | 
48 | C=CC(=O)N1CCC(n2cc(-c3c(-c4ccc(Oc5ccn(C)n5)cc4)c4c(N)ncnc4n3C)cn2)CC1 [Example 855] | 1 to 100 | 0.25 to 1 | 
49 | C=C(C)C(=O)Nc1ccc(-c2c(-c3ccc(Oc4cccc(C)n4)cc3)c3c(N)ncnn3c2CN(C)C)cc1 [Example 856] | 0.25 to 1 | 0.25 to 1 | 
50 | C=C(C)C(=O)Nc1ccc(-c2[nH]c3ncnc(N)c3c2-c2ccc(Oc3cccc(C)n3)cc2)nc1 [Example 857] | 1 to 100 | 1 to 100 | 
51 | Cn1c(C2CCN(C#N)C2)c(-c2ccc(C(=O)N3CCCC3)cc2)c2c(N)ncnc21 (stereo not drawn) [Example 858] | ≤ 0.1 | < 0.1 | 
52 | C=CS(=O)(=O)N1CCC(c2c(-c3ccc(C(=O)N4CCCC4)cc3)c3c(N)ncnc3n2C)C1 (stereo not drawn) [Example 859] | 1 to 100 | 1 to 100 | 
53 | C=C(C)C(=O)Nc1ccc(-c2nn3ccnc(N)c3c2-c2ccc(C(=O)N3CCCC3)cc2)cc1 [Example 862] | 1 to 100 | 1 to 100 | 
54 | C=C(C)C(=O)Nc1cc(-c2c(-c3ccc(C(=O)N4CCCC4)cc3)c3c(N)ncnc3n2C)n(C)n1 [Example 865] |  | 0.1 to 0.25 | 0.25 to 1
55 | C=C(C)C(=O)Nc1cc(-c2c(-c3ccc(C(=O)N4CCCC4)cc3)c3c(N)ncnc3n2C)n(C)n1 [Example 866] |  | < 0.1 | ≤ 0.1
56 | C=C(C)C(=O)Nc1ccc(-c2nn3ccnc(N)c3c2C2=CCC(C(=O)N3CCCC3)CC2)cc1 (stereo not drawn) [Example 868] | 1 to 100 | 1 to 100 | 
57 | C=C(C)C(=O)Nc1ccc(-c2c(-c3ccc(C(=O)N4CCCC4)cc3)c3c(N)n[nH]c(=O)c3n2C)cc1 [Example 870] |  | 1 to 100 | 0.1 to 0.25
58 | C=Cc1ncc(-c2c(-c3ccc(Oc4nccc(C)n4)cc3)c3c(N)ncnc3n2C)cn1 [Example 877] | 0.25 to 1 | 0.1 to 0.25 | 
59 | C=C(C)C(=O)Nc1ccc(-c2c(-c3ccc(C(=O)N4CCCC4)cc3)c3c(N)nn(C)c(=O)c3n2C)cc1 [Example 878] | ≤ 0.1 | 0.1 to 0.25 | 
60 | C=C(C)C(=O)Nc1ccc(-c2c(-c3ccc(C(=O)N4CCCC4)cc3)c3c(N)n[nH]c(=O)c3n2C)cc1 [Example 879] |  | 1 to 100 | 1 to 100
